Reference: article PMC11067034 (Proceedings of the National Academy of Sciences of the …, 2024)

Molecular target: T1, human CTF18-RFC (ATPγS sites in CTF18/A, RFC2/B, RFC5/C, RFC4/D) (Homo sapiens, UniProt P35249+P35250+P40937+Q8WVB6)
T1 construct: gene CHTF18; heptameric CTF18-RFC2-5-DCC1-CTF8 from baculovirus/insect cells, intact complex; DCC1 and CTF8 invisible in maps; mixed with human PCNA (from E. coli BL21) and two-tailed DNA; with Replication factor C subunit 3; Sister chromatid cohesion protein DCC1; Chromosome transmission fidelity protein 8 homolog; Proliferating cell nuclear antigen
Assay: cryo-EM structure
Format: binding
Conditions: Mg2+-coordinated; ATPase sites of CTF18, RFC2, RFC5 and RFC4 (arginine fingers from adjacent subunits); 0.5 mM ATPγS, PCNA and DNA, 1 mM Mg acetate, pH 7.5, room temperature

In the case of Nc1ncnc2c1ncn2[C@@H]1O[C@H](COP(=O)(O)OP(=O)(O)OP(O)(O)=S)[C@@H](O)[C@H]1O [ATPγS], the cryo-EM structure is reported as “We identified four ATPγS molecules in the AAA+ nucleotide binding pockets of subunits CTF18/A, RFC2/B, RFC5/C”.
